Assay results reported in the NIST ThermoML archive (doi:10.1016/j.jct.2008.10.010).

Experiment: molar heat capacity at constant pressure; xn = mol fraction of the nth substance listed
Settings: 101.3 kPa, Liquid, Small sample (50 mg) DSC

CCC(C)(C)O [2-methylbutan-2-ol] + CCCCCCC
Settings	molar heat capacity at constant pressure [J/K/mol]
327.15 K, x1 = 0.1547	258.26
327.15 K, x1 = 0.2993	269.94
327.15 K, x1 = 0.4051	274.66
327.15 K, x1 = 0.4986	277.47
327.15 K, x1 = 0.5981	279.08
327.15 K, x1 = 0.7015	280.02
327.15 K, x1 = 0.8023	279.59
327.15 K, x1 = 0.9139	278.56
327.15 K, x1 = 0.9609	277.44
328.15 K, x1 = 0.0061	236.22
328.15 K, x1 = 0.0249	237.72
328.15 K, x1 = 0.0494	242.15
328.15 K, x1 = 0.1	251.24
328.15 K, x1 = 0.1547	258.56
328.15 K, x1 = 0.1999	263.19
328.15 K, x1 = 0.2993	270.46
328.15 K, x1 = 0.4051	275.23
328.15 K, x1 = 0.4986	278.16
328.15 K, x1 = 0.5981	279.9
328.15 K, x1 = 0.7015	280.91
328.15 K, x1 = 0.8023	280.5
328.15 K, x1 = 0.9139	279.46
328.15 K, x1 = 0.9609	278.39
329.14 K, x1 = 0.0061	236.63
329.14 K, x1 = 0.0249	238.11
329.14 K, x1 = 0.0494	242.34
329.14 K, x1 = 0.1	251.42
329.14 K, x1 = 0.1547	258.8
329.14 K, x1 = 0.1999	263.54
329.14 K, x1 = 0.2993	270.92
329.14 K, x1 = 0.4051	275.78
329.14 K, x1 = 0.4986	278.83
329.14 K, x1 = 0.5981	280.59
329.14 K, x1 = 0.7015	281.67
329.14 K, x1 = 0.8023	281.37
329.14 K, x1 = 0.9139	280.33
329.14 K, x1 = 0.9609	279.29
330.14 K, x1 = 0.0061	237.14
330.14 K, x1 = 0.1	251.61
330.14 K, x1 = 0.1547	259.04
330.14 K, x1 = 0.2993	271.42
330.14 K, x1 = 0.4986	279.45
330.14 K, x1 = 0.5981	281.32
330.14 K, x1 = 0.7015	282.46
330.14 K, x1 = 0.8023	282.14
330.14 K, x1 = 0.9139	281.17
330.14 K, x1 = 0.9609	280.09
330.15 K, x1 = 0.0249	238.44
330.15 K, x1 = 0.0494	242.58
330.15 K, x1 = 0.1999	263.87
330.15 K, x1 = 0.4051	276.4
331.15 K, x1 = 0.0061	237.49
331.15 K, x1 = 0.0249	238.7
331.15 K, x1 = 0.0494	242.66
331.15 K, x1 = 0.1	251.73
331.15 K, x1 = 0.1547	259.17
331.15 K, x1 = 0.1999	264.08
331.15 K, x1 = 0.2993	271.78
331.15 K, x1 = 0.4051	276.82
331.15 K, x1 = 0.4986	280.03
331.15 K, x1 = 0.5981	282
331.15 K, x1 = 0.7015	283.13
331.15 K, x1 = 0.8023	282.9
331.15 K, x1 = 0.9139	281.93
331.15 K, x1 = 0.9609	280.9
332.11 K, x1 = 0.4051	277.29
332.14 K, x1 = 0.0061	237.91
332.14 K, x1 = 0.0249	239.06
332.14 K, x1 = 0.0494	242.88
332.14 K, x1 = 0.1	251.74
332.14 K, x1 = 0.1547	259.34
332.14 K, x1 = 0.1999	264.36
332.14 K, x1 = 0.2993	272.13
332.14 K, x1 = 0.4986	280.59
332.14 K, x1 = 0.5981	282.58
332.14 K, x1 = 0.7015	283.9
332.14 K, x1 = 0.8023	283.62
332.14 K, x1 = 0.9139	282.68
332.14 K, x1 = 0.9609	281.66
333.14 K, x1 = 0.0061	238.38
333.14 K, x1 = 0.0249	239.45
333.14 K, x1 = 0.0494	243.08
333.14 K, x1 = 0.1	251.95
333.14 K, x1 = 0.1547	259.59
333.14 K, x1 = 0.1999	264.68
333.14 K, x1 = 0.2993	272.54
333.14 K, x1 = 0.4051	277.88
333.14 K, x1 = 0.4986	281.17
333.14 K, x1 = 0.7015	284.62
333.14 K, x1 = 0.8023	284.48
333.14 K, x1 = 0.9139	283.56
333.14 K, x1 = 0.9609	282.52
333.15 K, x1 = 0.5981	283.29
334.04 K, x1 = 0.0249	239.87
334.15 K, x1 = 0.0061	238.94
334.15 K, x1 = 0.0494	243.42
334.15 K, x1 = 0.1	252.08
334.15 K, x1 = 0.1547	259.81
334.15 K, x1 = 0.1999	264.99
334.15 K, x1 = 0.2993	272.99
334.15 K, x1 = 0.4051	278.43
334.15 K, x1 = 0.4986	281.83
334.15 K, x1 = 0.5981	284.02
334.15 K, x1 = 0.7015	285.36
334.15 K, x1 = 0.8023	285.27
334.15 K, x1 = 0.9139	284.32
334.15 K, x1 = 0.9609	283.36
334.33 K, x1 = 0.0249	239.98
335.14 K, x1 = 0.0061	239.28
335.14 K, x1 = 0.0249	240.2
335.14 K, x1 = 0.0494	243.54
335.14 K, x1 = 0.1	252.23
335.14 K, x1 = 0.1547	259.88
335.14 K, x1 = 0.1999	265.1
335.14 K, x1 = 0.2993	273.19
335.14 K, x1 = 0.4051	278.76
335.14 K, x1 = 0.4986	282.26
335.14 K, x1 = 0.5981	284.55
335.14 K, x1 = 0.7015	286
335.14 K, x1 = 0.8023	285.89
335.14 K, x1 = 0.9139	285.08
335.14 K, x1 = 0.9609	284.15
336.14 K, x1 = 0.0061	239.67
336.14 K, x1 = 0.0249	240.6
336.14 K, x1 = 0.0494	243.78
